In patent US6770596B1, “Fused tricyclic compounds, process for their preparation, and herbicidal compositions containing them” (Ishihara Sangyo Kaisha Ltd., priority 2002, dated 2004):

Tests used:
Type in all cases: in vivo
[1] = tested on: ivyleaf morningglory (Ipomoea hederacea, IPH); test: Pre-emerge test, ivyleaf morningglory; details: 250 g ai/ha, 14 days after application, rating scale 0-100 (0 no damage, 100 complete death)
Text: (§1) A standard greenhouse herbicide activity screening system was used to evaluate the herbicidal efficacy and crop safety of these test compounds. Seven broadleaf weed species including redroot pigweed (Amaranthus retroflexus, AMR), velvetleaf (Abutilon theophrasti, ABT), sicklepod (Cassia obtusifolia, CAO), ivyleaf morningglory (Ipomoea hederacea, IPH), lambsquarters (Chenopodium album, CHA), common ragweed (Ambrosia artemisiifolia L., AML), and cocklebur (Xanthium strumariunt, XAS) were used as test species. Four grass weed species including green foxtail (Setaria viridis, SEV), barnyardgrass (Echinachloa crus-galli, ECC), johnsongrass (Sorghum halepense, SOH), and large crabgrass (Digitaria sanguinalis, DIS) were also used. In addition, four crop species, field corn (Zea mays L., var. Dekalb 535, CORN), soybean (Glycine max L., var. Pella 86, SOY), upland rice (Oryza sp., var.Tebonnet, RICE), and wheat (Triticum aestivum) were included all plants were grown in 10 cm square plastic pots which were filled with a sandy loam soil mix.
(§2) For pre-emerge tests, seeds were planted one day prior to application of the test compounds. All test compounds were dissolved in acetone and applied to the test pots in a volume of 187 l/ha. Test materials were applied at rates ranging from 8 g ai/ha to 1000 g ai/ha using a track sprayer equipped with a TJ8001E even flow flat fan spray nozzle. This application simulates a typical commercial field herbicide application.
(§3) At 14 days after application of the test materials, phytotoxicity ratings were recorded. A rating scale of 0-100 was used for both pre and post emerge tests as previously described in Research Methods in Weed Science, 2nd edition, B, Truelove, Ed., Southern Weed Science Society, Auburn University, Auburn, Ala., 1977. Briefly, “0” corresponds to no damage and “100” corresponds to complete death of all plants in the test unit. This scale was used both to determine efficacy against weed species and damage to crop species. Herbicide activity data for various compounds of this invention, which are shown by compound No. in Tables 1-3, are shown in Tables 5 and 6.

[2] = tested on: field corn (Zea mays L., var. Dekalb 535, CORN); test: Post-emerge test, crop damage field corn; details: post-emerge, 250 g ai/ha, 14 days after application, rating scale 0-100 (0 no damage, 100 complete death)
Text: as §1, §2
(§4) For post-emerge tests, seeds were planted 8-21 days prior to the test to allow emergence and good foliage development prior to application of the test substances. At the time of the post-emerge application, plants of all species were usually at the 2-3 leaf stage of development. In the postemerge test, a commercial non-ionic surfactant was also included (0.25% v/v) to enhance wetting of the leaf surfaces of target plants.
as §3

[3] = tested on: johnsongrass (Sorghum halepense, SOH); test: Post-emerge test, johnsongrass; details: 250 g ai/ha, 14 days after application, rating scale 0-100 (0 no damage, 100 complete death)
Text: as §1, §2, §4, §3

[4] = tested on: redroot pigweed (Amaranthus retroflexus, AMR); test: Pre-emerge test, redroot pigweed; details: 250 g ai/ha, 14 days after application, rating scale 0-100 (0 no damage, 100 complete death)
Text: as §1, §2, §3

[5] = tested on: upland rice (Oryza sp., var.Tebonnet, RICE); test: Pre-emerge test, crop damage upland rice; details: pre-emerge, 250 g ai/ha, 14 days after application, rating scale 0-100 (0 no damage, 100 complete death)
Text: as §1, §2, §3

[6] = tested on: large crabgrass (Digitaria sanguinalis, DIS); test: Post-emerge test, large crabgrass; details: 250 g ai/ha, 14 days after application, rating scale 0-100 (0 no damage, 100 complete death)
Text: as §1, §2, §4, §3

[7] = tested on: ivyleaf morningglory (Ipomoea hederacea, IPH); test: Post-emerge test, ivyleaf morningglory; details: 250 g ai/ha, 14 days after application, rating scale 0-100 (0 no damage, 100 complete death)
Text: as §1, §2, §4, §3

[8] = tested on: barnyardgrass (Echinachloa crus-galli, ECC); test: Post-emerge test, barnyardgrass; details: 250 g ai/ha, 14 days after application, rating scale 0-100 (0 no damage, 100 complete death)
Text: as §1, §2, §4, §3

[9] = tested on: soybean (Glycine max L., var. Pella 86, SOY); test: Post-emerge test, crop damage soybean; details: post-emerge, 250 g ai/ha, 14 days after application, rating scale 0-100 (0 no damage, 100 complete death)
Text: as §1, §2, §4, §3

[10] = tested on: velvetleaf (Abutilon theophrasti, ABT); test: Pre-emerge test, velvetleaf; details: 250 g ai/ha, 14 days after application, rating scale 0-100 (0 no damage, 100 complete death)
Text: as §1, §2, §3

[11] = tested on: cocklebur (Xanthium strumariunt, XAS); test: Pre-emerge test, cocklebur; details: 250 g ai/ha, 14 days after application, rating scale 0-100 (0 no damage, 100 complete death)
Text: as §1, §2, §3

[12] = tested on: soybean (Glycine max L., var. Pella 86, SOY); test: Pre-emerge test, crop damage soybean; details: pre-emerge, 250 g ai/ha, 14 days after application, rating scale 0-100 (0 no damage, 100 complete death)
Text: as §1, §2, §3

[13] = tested on: sicklepod (Cassia obtusifolia, CAO); test: Pre-emerge test, sicklepod; details: 250 g ai/ha, 14 days after application, rating scale 0-100 (0 no damage, 100 complete death)
Text: as §1, §2, §3

[14] = tested on: wheat (Triticum aestivum); test: Post-emerge test, crop damage wheat; details: post-emerge, 250 g ai/ha, 14 days after application, rating scale 0-100 (0 no damage, 100 complete death)
Text: as §1, §2, §4, §3

[15] = tested on: lambsquarters (Chenopodium album, CHA); test: Pre-emerge test, lambsquarters; details: 250 g ai/ha, 14 days after application, rating scale 0-100 (0 no damage, 100 complete death)
Text: as §1, §2, §3

[16] = tested on: johnsongrass (Sorghum halepense, SOH); test: Pre-emerge test, johnsongrass; details: 250 g ai/ha, 14 days after application, rating scale 0-100 (0 no damage, 100 complete death)
Text: as §1, §2, §3

[17] = tested on: green foxtail (Setaria viridis, SEV); test: Pre-emerge test, green foxtail; details: 250 g ai/ha, 14 days after application, rating scale 0-100 (0 no damage, 100 complete death)
Text: as §1, §2, §3

[18] = tested on: upland rice (Oryza sp., var.Tebonnet, RICE); test: Post-emerge test, crop damage upland rice; details: post-emerge, 250 g ai/ha, 14 days after application, rating scale 0-100 (0 no damage, 100 complete death)
Text: as §1, §2, §4, §3

[19] = tested on: green foxtail (Setaria viridis, SEV); test: Post-emerge test, green foxtail; details: 250 g ai/ha, 14 days after application, rating scale 0-100 (0 no damage, 100 complete death)
Text: as §1, §2, §4, §3

[20] = tested on: velvetleaf (Abutilon theophrasti, ABT); test: Post-emerge test, velvetleaf; details: 250 g ai/ha, 14 days after application, rating scale 0-100 (0 no damage, 100 complete death)
Text: as §1, §2, §4, §3

[21] = tested on: wheat (Triticum aestivum); test: Pre-emerge test, crop damage wheat; details: pre-emerge, 250 g ai/ha, 14 days after application, rating scale 0-100 (0 no damage, 100 complete death)
Text: as §1, §2, §3

[22] = tested on: sicklepod (Cassia obtusifolia, CAO); test: Post-emerge test, sicklepod; details: 250 g ai/ha, 14 days after application, rating scale 0-100 (0 no damage, 100 complete death)
Text: as §1, §2, §4, §3

[23] = tested on: field corn (Zea mays L., var. Dekalb 535, CORN); test: Pre-emerge test, crop damage field corn; details: pre-emerge, 250 g ai/ha, 14 days after application, rating scale 0-100 (0 no damage, 100 complete death)
Text: as §1, §2, §3

[24] = tested on: redroot pigweed (Amaranthus retroflexus, AMR); test: Post-emerge test, redroot pigweed; details: 250 g ai/ha, 14 days after application, rating scale 0-100 (0 no damage, 100 complete death)
Text: as §1, §2, §4, §3

[25] = tested on: common ragweed (Ambrosia artemisiifolia L., AML); test: Post-emerge test, common ragweed; details: 250 g ai/ha, 14 days after application, rating scale 0-100 (0 no damage, 100 complete death)
Text: as §1, §2, §4, §3

[26] = tested on: barnyardgrass (Echinachloa crus-galli, ECC); test: Pre-emerge test, barnyardgrass; details: 250 g ai/ha, 14 days after application, rating scale 0-100 (0 no damage, 100 complete death)
Text: as §1, §2, §3

[27] = tested on: large crabgrass (Digitaria sanguinalis, DIS); test: Pre-emerge test, large crabgrass; details: 250 g ai/ha, 14 days after application, rating scale 0-100 (0 no damage, 100 complete death)
Text: as §1, §2, §3

[28] = tested on: common ragweed (Ambrosia artemisiifolia L., AML); test: Pre-emerge test, common ragweed; details: 250 g ai/ha, 14 days after application, rating scale 0-100 (0 no damage, 100 complete death)
Text: as §1, §2, §3

[29] = tested on: lambsquarters (Chenopodium album, CHA); test: Post-emerge test, lambsquarters; details: 250 g ai/ha, 14 days after application, rating scale 0-100 (0 no damage, 100 complete death)
Text: as §1, §2, §4, §3

[30] = tested on: cocklebur (Xanthium strumariunt, XAS); test: Post-emerge test, cocklebur; details: 250 g ai/ha, 14 days after application, rating scale 0-100 (0 no damage, 100 complete death)
Text: as §1, §2, §4, §3

CC1Oc2cc(F)c(-c3nn(C)c(C(F)(F)F)c3Cl)c3c2N(C1=O)C(C)C(=O)N3 (mixture of isomers) [1-50]
Pre-emerge Herbicidal Activity IPH (phytotoxicity rating) [1]: 90 | Post-emerge crop damage CORN (phytotoxicity rating) [2]: 20 | Post-emerge Herbicidal Activity SOH (phytotoxicity rating) [3]: 55 | Pre-emerge Herbicidal Activity AMR (phytotoxicity rating) [4]: 100 | Pre-emerge crop damage RICE (phytotoxicity rating) [5]: 50 | Post-emerge Herbicidal Activity DIS (phytotoxicity rating) [6]: 70 | Post-emerge Herbicidal Activity IPH (phytotoxicity rating) [7]: 100 | Post-emerge Herbicidal Activity ECC (phytotoxicity rating) [8]: 99 | Post-emerge crop damage SOY (phytotoxicity rating) [9]: 75 | Pre-emerge Herbicidal Activity ABT (phytotoxicity rating) [10]: 100 | Pre-emerge Herbicidal Activity XAS (phytotoxicity rating) [11]: 75 | Pre-emerge crop damage SOY (phytotoxicity rating) [12]: 60 | Pre-emerge Herbicidal Activity CAO (phytotoxicity rating) [13]: 99 | Post-emerge crop damage WHEAT (phytotoxicity rating) [14]: 35 | Pre-emerge Herbicidal Activity CHA (phytotoxicity rating) [15]: 100 | Pre-emerge Herbicidal Activity SOH (phytotoxicity rating) [16]: 100 | Pre-emerge Herbicidal Activity SEV (phytotoxicity rating) [17]: 100 | Post-emerge crop damage RICE (phytotoxicity rating) [18]: 65 | Post-emerge Herbicidal Activity SEV (phytotoxicity rating) [19]: 70 | Post-emerge Herbicidal Activity ABT (phytotoxicity rating) [20]: 100 | Pre-emerge crop damage WHEAT (phytotoxicity rating) [21]: 25 | Post-emerge Herbicidal Activity CAO (phytotoxicity rating) [22]: 75 | Pre-emerge crop damage CORN (phytotoxicity rating) [23]: 85 | Post-emerge Herbicidal Activity AMR (phytotoxicity rating) [24]: 100 | Post-emerge Herbicidal Activity AML (phytotoxicity rating) [25]: 70 | Pre-emerge Herbicidal Activity ECC (phytotoxicity rating) [26]: 99 | Pre-emerge Herbicidal Activity DIS (phytotoxicity rating) [27]: 99 | Pre-emerge Herbicidal Activity AML (phytotoxicity rating) [28]: 100 | Post-emerge Herbicidal Activity CHA (phytotoxicity rating) [29]: 100 | Post-emerge Herbicidal Activity XAS (phytotoxicity rating) [30]: 100
